Test results from patent US20250000834A1, “COMPOSITIONS AND METHODS FOR TARGETING GPCR FOR THE PREVENTION AND TREATMENT OF PAIN” (Duke University, priority 2021, published 2025).

Key:
[1] = system: PTX-induced mechanical allodynia in mice; experiment: Paclitaxel (PTX)-induced mechanical allodynia, von Frey paw withdrawal threshold; assay type: in vivo, mouse; details: intrathecal 100 ng
Method: (§1) Pain models and drug injection: Animal model of chemotherapy-induced peripheral neuropathy (CIPN) was induced by paclitaxel (Sigma-Aldrich (St. Louis, MO), T7191, diluted with sterile saline). A single injection of paclitaxel ([…]) was given by intraperitoneal injection. A single injection of paclitaxel may induce mechanical allodynia for 4-6 weeks (X. Luo et al., Macrophage Toll-like Receptor 9 Contributes to Chemotherapy-Induced Neuropathic Pain in Male Mice. J Neurosci 39, 6848-6864 (2019)). Animal model of […] neuropathy was induced by streptozotocin (STZ, Sigma-Aldrich (St. Louis, MO), S0130, diluted with sterile saline). A single injection of STZ (75 mg/kg) was given as previously described (N. C. Brigham et al., Controlled release of etoricoxib from poly(ester urea) films for post-operative pain management. J Control Release 329, 316-327 (2021)). For intrathecal (i.t.) injection of MaR1, a spinal cord puncture was made by a Hamilton micro-syringe (Hamilton, Reno, NV) with a 30-gauge needle between the L5 and L6 levels to deliver reagents (5 μl) to the cerebral spinal fluid (J. L. Hylden, G. L. Wilcox, Intrathecal morphine in mice: a new technique. Eur. J Pharmacol. 67, 313-316 (1980)).
(§2) Nociceptive behavior tests: Gpr37l1^+/+, Gpr37l1^+/−, or Gpr37l1^−/− mice were habituated to the testing environment for at least two days before the baseline testing. All the animal behaviors were tested blindly. Thermal and mechanical sensitivity was tested before and after the injection of paclitaxel (PTX, 6 mg/kg, IP) and streptozotocin (STZ, 75 mg/kg, IP). MaR1 was intrathecally injected 3 days after the STZ and PTX injection. […] The 50% paw withdrawal threshold was measured by Dixon's up-down method (W. J. Dixon, Efficient analysis of experimental observations. Annu Rev Pharmacol Toxicol 20, 441-462 (1980)). Thermal sensitivity was measured using a Hargreaves radiant heat apparatus (IITC Life Science, Woodland Hills, CA) (K. Hargreaves, et al., A new and sensitive method for measuring thermal nociception in cutaneous hyperalgesia. Pain 32, 77-88 (1988)). […]

[2] = system: STZ-induced mechanical allodynia in mice; experiment: Streptozotocin (STZ)-induced mechanical allodynia, von Frey paw withdrawal threshold; assay type: in vivo, mouse; details: intrathecal 100 ng
Method: as §1, §2

[3] = system: neuron-glia mixed cultures from DRG; experiment: IL-1β release in SGC-neuron co-cultures from DRG (ELISA); assay type: cell-based, mouse; details: 100 nM, cells from WT mice, 1 μM paclitaxel 24 h
Method: SGC and neuron co-culture: DRG were collected from wild-type (WT) or knock-out (KO) mice (8 weeks male) and incubated in 1 mg/ml Collagenase/Dispase (Roche Diagnostics, Madison, WI, USA) at 37° C. for 60 min, with agitation at 100 revolutions per minute (RPM) and then followed by incubation in 0.05% trypsin/EDTA for 10 min. The digestion enzymes were prepared in Dulbecco's modified Eagle medium/F12 with GlutaMAX (ThermoFisher, Waltham, MA). After incubation of 0.1% trypsin inhibitor and centrifugation (300 G), the cell pellet was gently triturated in a neurobasal medium containing […]. Dissociated DRG cells were seeded on non-coated culture dishes for 4 hrs. SGC and neurons were included for co-culture by hand-shaking of the culture flasks gently for 5 to 10 min and then resuspended by replacing with a new neurobasal medium. The attached glial-like cells were cultured in the DMEM/F12 medium containing 10% fetal bovine serum and 1% streptomycin/penicillin to promote cell growth and inhibition of differentiation. After 2 to 6 days, the glial-like cells were differentiated by application of the serum-free neural basal medium. […]

SMILES: CC/C=C\C/C=C\C[C@H](O)\C=C/C=C/C=C/[C@H](O)C/C=C\CCC(=O)O [MaR1, Maresin 1]
- effect on PTX-induced mechanical allodynia ([1]; Gpr37l1+/+ WT mice, 3 days after PTX): reversed PTX-induced mechanical allodynia in all the mice
- effect on PTX-induced mechanical allodynia ([1]; Gpr37l1+/− mice): significantly reversed the mechanical allodynia in a majority
- effect on PTX-induced mechanical allodynia ([1]; Gpr37l1−/− mice): no significant effects
- effect on STZ-induced mechanical allodynia ([2]; Gpr37l1+/+ WT mice, 3 days after STZ): reversed STZ-induced mechanical allodynia in all the mice
- effect on STZ-induced mechanical allodynia ([2]; Gpr37l1+/− mice): significantly reversed the mechanical allodynia in the majority
- effect on STZ-induced mechanical allodynia ([2]; Gpr37l1−/− mice): no significant effects
- effect on paclitaxel-induced IL-1β secretion [3]: blocked
